# Laboratory results as given in patent publication US20100254928A1, “NOVEL COMPOSITION CONTAINING OZONIZED SURFACTANT” (priority 2007, published 2010).
# Key:
# slug = assay: Insecticidal activity: test of killing slugs; assay type: in vivo; details: 1% aqueous solution, 2 pushes: 1.88 mL sprayed from 15 cm above
# Experimental: In order to check the insect control performance of the ozonized surfactant, a test of killing slugs was performed. A slug was put into a glass petri dish. Onto the slug, a 1% aqueous solution of the ozonized surfactant obtained in Example 4, 5, 7, 9 or 10 (2 pushes: 1.88 mL) was sprayed from 15 cm above. After that, the time elapsed until the slug died (the motion stopped) was measured. As a control, the same evaluation was simultaneously performed with a commercial insecticide (product name: NEW Namekuji (slug) Spray, made by Sumitomo Chemical Garden Products Inc., Lot No. 11.05 0806JE) containing a natural substituted phenol, a copper compound and an alcohol, as active ingredients.
# Staphylococcus aureus [1] = assay: Sterilizing activity value test; assay type: cell-based; details: 0.5% aqueous solution, contact time 5 min, 25 ± 1° C., vs 0.05 (w/v %) Polysorbate 80 control
# Experimental: (§1) In order to check the effect of the ozonized surfactant as a sterilizing detergent, a sterilizing activity test was performed. A 0.5% aqueous solution of the solution obtained in Example 4 was tested based on the sterilizing activity test of home care synthetic detergents and soaps, which is a method set by Detergent and Soap Fair Trade Council. […] Each of the control solution and the test sample solutions described in the table below is applied to a test specimen to which bacteria have been inoculated beforehand. After letting the specimens stand for a certain period of time, the viable bacteria count on each specimen is measured. The sterilizing activity value is obtained by subtracting the common logarithm value of the viable bacteria count on the specimen treated with a test sample from the common logarithm value of the viable bacteria count on the specimen treated with the control. […] In a predetermined period of time, an inactivator is applied to inactivate the property suppressing the growth of bacteria and the property killing bacteria, and subsequently the viable bacteria count on the specimen is determined. […]
# Escherichia coli [2] = assay: Sterilizing activity value test; assay type: cell-based; details: 0.5% aqueous solution, contact time 5 min, 25 ± 1° C., vs 0.05 (w/v %) Polysorbate 80 control
# Experimental: as §1
# [3] = Temporal change in oxidizing property (iodine titration method); assay type: physicochemical; details: 1% aqueous solution, 25° C., 700 days
# Excerpt: After deaerating the obtained aqueous ozonized surfactant solution to remove dissolved ozone gas by helium purging, the oxidizing property of the aqueous ozonized surfactant solution can be determined by the iodine titration method (see Non Patent Literature 1). Whether or not the aqueous ozonized surfactant solution maintains a function as a surfactant can be evaluated by checking whether or not frothing, which is a characteristic of surfactants, occurs when the solution is agitated or vibrated.
# Meanwhile, oxygen was supplied from an oxygen cylinder into an ozonizer (ozonizer GR-RB made by Sumitomo Precision Products Co., Ltd.) at an oxygen flow rate of 0.3 L/min to ozonize the oxygen to produce ozone gas. Then, the ozone gas was dissolved in the above-described aqueous solution in a dissolving module (SEK model made by ERC Technology), and the aqueous solution was circulated at a flow rate of 1 L/min. […] Further, in 30 minutes, the concentration increased to 25 ppm (see FIG. 2). After deaerating the aqueous solution that had undergone about 30-minute ozone treatment to remove dissolved ozone gas by helium purging, oxidizing property of the aqueous solution was determined by the iodine titration method. As a result, the aqueous solution had oxidizing property, and frothing, which is a characteristic of surfactants, was observed. The results confirmed that ozonized Tween 80 had been produced. Further, a temporal change in the oxidizing property of the aqueous solution was determined by the iodine titration method at 25° C. for 20 days. As a result, the percentage of oxidizing property measured after 20 days to that measured just after preparation was 109%.
# The solution A was diluted to a 1% aqueous solution, and a temporal change in the oxidizing property of the aqueous solution was determined by the iodine titration method at 25° C. for 700 days. As a result, the percentage of oxidizing property measured after 700 days to that measured just after preparation was 101%.
# insects such as ants = assay: Repellent activity (Test Example 14); assay type: in vivo, pill bug; details: 8 hours
# Experimental: The repellent performance of the ozonized surfactant of the present invention was checked. […] In addition, 1 g of honey was instilled into the center. […] These specimens were placed on leaf mold in a flower bed, and the conditions were observed 8 hours later.
# Pseudomonas aeruginosa = assay: Bactericidal activity test with variation of the period of action; assay type: cell-based
# Experimental: (§2) In order to check the bactericidal activity of the ozonized surfactant, a bactericidal activity test was performed with variation of the period of action.
# (§3) Developed colonies were scraped off and a bacterial solution of about 10^8 CFU/mL was prepared.
# (§4) Into 50 mL centrifuging tubes, 10 mL each of 0.5% and 0.05% aqueous solutions of the ozonized surfactant obtained in Example 4 were separately poured. To each solution, 0.1 mL of sample bacterial solution was inoculated and mixed for a predetermined period of action at room temperature. To 10 mL of SCDLP bouillon medium (EIKEN CHEMICAL) of which the effectiveness as an inactivator had been confirmed beforehand, 0.1 mL of the resulting solution after a predetermined period of action was added for inactivation of bactericidal components. Then the bacteria count was measured. As a control test, the same operation was performed with the use of an unozonized surfactant or sterile purified water. A 10-fold serial dilution of each sample solution after inactivation was prepared. Each 1 mL of the undiluted and diluted sample solutions were separately mixed with about 20 mL of agar medium, and then cultured. After culturing, the number of colony forming units per 1 mL of each sample solution was counted.
# Staphylococcus aureus [4] = assay: as above; assay type: cell-based
# Experimental: as §2, §3, §4
# Escherichia coli [5] = assay: as above; assay type: cell-based
# Experimental: as §2, §3, §4
# [6] = Conc. 0.05%, period of action 10 min
# [7] = Conc. 0.05%, period of action 30 min
# [8] = Conc. 0.5%, period of action 5 min
# [9] = Conc. 0.5%, period of action 10 min
# [10] = Conc. 0.5%, period of action 30 min
substance,measurement,setting,value
Ozonized POE (10 EO) oleyl ether [Example 4],Death time of slug,slug,564 s
same,sterilizing activity value,Staphylococcus aureus [1],2.8
same,sterilizing activity value,Escherichia coli [2],4.6
same,percentage of oxidizing property measured after 700 days to that measured just after preparation,[3],101%
same,insects gathered on the specimen,insects such as ants; 2 mL of 1% aqueous solution on tissue paper with 1 g honey,did not gather at all
same,insects gathered on the specimen,insects such as ants; 2 mL of 10% aqueous solution on tissue paper with 1 g honey,did not gather at all
same,bacteria count,"Pseudomonas aeruginosa; Conc. 0.05%, period of action 5 min, 0 min 4.5 × 10^6",1.5 × 10^2 CFU/mL
same,bacteria count,Pseudomonas aeruginosa; [6],<1 × 10^2 CFU/mL
same,bacteria count,Pseudomonas aeruginosa; [7],<1 × 10^2 CFU/mL
same,bacteria count,Pseudomonas aeruginosa; [8],<1 × 10^2 CFU/mL
same,bacteria count,Pseudomonas aeruginosa; [9],<1 × 10^2 CFU/mL
same,bacteria count,Pseudomonas aeruginosa; [10],<1 × 10^2 CFU/mL
same,bacteria count,"Staphylococcus aureus [4]; Conc. 0.05%, period of action 5 min, 0 min 8.2 × 10^6",<1 × 10^2 CFU/mL
same,bacteria count,Staphylococcus aureus [4]; [6],1 × 10^2 CFU/mL
same,bacteria count,Staphylococcus aureus [4]; [7],<1 × 10^2 CFU/mL
same,bacteria count,Staphylococcus aureus [4]; [8],<1 × 10^2 CFU/mL
same,bacteria count,Staphylococcus aureus [4]; [9],<1 × 10^2 CFU/mL
same,bacteria count,Staphylococcus aureus [4]; [10],<1 × 10^2 CFU/mL
same,bacteria count,"Escherichia coli [5]; Conc. 0.05%, period of action 5 min, 0 min 3.8 × 10^6",4.8 × 10^6 CFU/mL
same,bacteria count,Escherichia coli [5]; [6],<1 × 10^2 CFU/mL
same,bacteria count,Escherichia coli [5]; [7],<1 × 10^2 CFU/mL
same,bacteria count,Escherichia coli [5]; [8],<1 × 10^2 CFU/mL
same,bacteria count,Escherichia coli [5]; [9],<1 × 10^2 CFU/mL
same,bacteria count,Escherichia coli [5]; [10],<1 × 10^2 CFU/mL
